Reference: patent publication EP0419676B1, “THIONAPHTHALENE DERIVATIVES, METHOD OF PRODUCING THE SAME, AND ANTIALLERGIC AGENT CONTAINING THE SAME” (TEIJIN LIMITED, priority 1989, dated 1990)
Like-named read-outs stand apart in the source and are kept apart here.

Tests used:
[1] = tested on: peritoneal mast cells of rat; experiment: Histamine release from IgE-sensitized peritoneal mast cells, DNP-As antigen (allergic release); format: cell-based, Sprague-Dawley strain male rat
Protocol: (§1) To a Sprague-Dawley strain male rat (10 weeks or older) was intraperitoneally administered, under ether anesthesia, a diluted rat anti-DNP-As IgE serum at 2 ml/kg. After 16 hours, cells were recovered by washing intraperitoneally with a Tyrode solution containing 0.5% heparin (Ca⁺⁺, Mg⁺⁺, free). Mast cells (5 x 10⁴) separated by overlying in the 30% Ficoll/Tyrode solution and centrifugation were reliberated into the Tyrode solution (Ca⁺⁺, Mg⁺⁺) and incubated with the addition of the drug solution shown in Table 3-1, for 10 minutes, and then DNP-As and phosphatidylserine were added to final concentrations of 20 µg/ml and 25 µg/ml, respectively, followed by incubation for 10 minutes. The reaction was stopped by ice-cooling, and the histamine release in the supernatant was determined by fluorophotometry.

[2] = tested on: peritoneal mast cells of rat; experiment: Histamine release from peritoneal mast cells induced by Compound 48/80 (non-allergic release); format: cell-based, Sprague-Dawley strain male rat; conditions: for inhibition at 10 µM: Rattus norvegicus, Mast cell, 10 min, read-out: Inhibitory ratio (%) histamine release
Protocol: as §1, with “fluorophotometry. Regarding the non-allergy release, 5 x 10⁴ of mast cells were investigated by incubation with 0.5 µg/ml of Compound 48/80 for 10 minutes, after the addition of the drug solution shown in Table 3-2.” for “fluorophotometry.”

[3] = tested on: anti-TNP IgE antibody production; experiment: IgE antibody production suppressive effect: anti-TNP IgE production by cultured spleen cells of TNP-KLH-immunized mouse; format: cell-based, BALB/C mouse
Protocol: An 8 weeks old BALB/C mouse (♀) was immunized by an intraperitoneal injection of 10 µg of TNP-KLH (trinitrophenyl-key hole limpet hemocyanine) and 2 mg of aluminum hydroxide gel, and after 3 weeks, 1 µg of TNP-KLH and 2 mg of aluminum hydroxide gel were boosted, and 4 weeks later, the spleen was enucleated.
The spleen cells (6 x 10⁶) were cultured together with 10 ng/ml of TNP-KLH, in the presence or non-presence of the compound of the present invention (10⁻⁵ to 10⁻⁷ M), in 1 ml of RPMI-1640 medium (containing 10% fetal bovine serum) for 2 days, followed by washing to remove the antigen and the drug, and the washed cells were resuspended in a fresh medium containing no antigen and further cultured for 5 days. All cultivations were performed under 5% CO₂ at 37°C. After completion of the culturing, the supernatant was recovered, and the concentration of anti-TNP IgE or anti-TNP IgG antibody was determined by an antigen and isotype specific immunoassay. […]
The values in the brackets ( ) indicate the values of the spontaneous IgE production amount observed when TNP-KLH was not added, and represent the IgE production dependency on the antigen.
The same experimental methods were used for the compounds shown below, and IgE antibody production suppressive effects were evaluated. […] (Exemplary compound VI - (1)): methyl (6,7-dimethoxy-2-naphthylthio)acetate (Exemplary compound V - (4)): N-(2-methoxycarbonylphenyl)-(6,7-dihydroxy-2-naphthylthio)acetamide (Exemplary compound V - (2)): N-tetrazolyl(6,7-dihydroxy-2-naphthylthio)acetamide Table 2

[4] = tested on: Rat homologous PCA reaction; experiment: Rat homologous PCA reaction; format: in vivo, Sprague-Dawley strain male rat; conditions: p.o., 1 hour before antigen
Protocol: The back of a Sprague-Dawley strain male rat (6 - 8 w) was depilated, and at one site on both sides thereof, 0.1 ml of a rat anti-ovalbumin IgE serum diluted with physiological saline was intradermally injected under ether anesthesia. After 48 hours, 25 mg/kg of ovalbumin, 25 mg/kg of Evans Blue were intravenously administered to induce the PCA reaction, and after 30 minutes, the skin was peeled off, dipped in a mixture of 0.3% Na₂SO₄·10H₂O/Acetate (3:7), and the dye amount infiltrated was quantitated by absorbance at 620 nm. The drug listed in Table 4 was suspended in 5% gum arabic solution and orally administered 1 hour before the antigen administration.

Lipoxygenase = target: T1, Lipoxygenase (Homo sapiens, UniProt P09917); experiment: Lipoxygenase inhibitory activity evaluation: LTB4 and 5-HETE production in A23187-stimulated whole blood; format: cell-based, healthy man; conditions: 10⁻⁵ M, A23187 25 µM; for Amount of LTB₄ produced: no addition 125; for Amount of 5-HETE produced: no addition 130
T1 construct: heparin-treated vein blood of a healthy person; from tissue; host or cells: human heparinised venous whole blood (leukocytes)
T1 sequence (P09917 1-674): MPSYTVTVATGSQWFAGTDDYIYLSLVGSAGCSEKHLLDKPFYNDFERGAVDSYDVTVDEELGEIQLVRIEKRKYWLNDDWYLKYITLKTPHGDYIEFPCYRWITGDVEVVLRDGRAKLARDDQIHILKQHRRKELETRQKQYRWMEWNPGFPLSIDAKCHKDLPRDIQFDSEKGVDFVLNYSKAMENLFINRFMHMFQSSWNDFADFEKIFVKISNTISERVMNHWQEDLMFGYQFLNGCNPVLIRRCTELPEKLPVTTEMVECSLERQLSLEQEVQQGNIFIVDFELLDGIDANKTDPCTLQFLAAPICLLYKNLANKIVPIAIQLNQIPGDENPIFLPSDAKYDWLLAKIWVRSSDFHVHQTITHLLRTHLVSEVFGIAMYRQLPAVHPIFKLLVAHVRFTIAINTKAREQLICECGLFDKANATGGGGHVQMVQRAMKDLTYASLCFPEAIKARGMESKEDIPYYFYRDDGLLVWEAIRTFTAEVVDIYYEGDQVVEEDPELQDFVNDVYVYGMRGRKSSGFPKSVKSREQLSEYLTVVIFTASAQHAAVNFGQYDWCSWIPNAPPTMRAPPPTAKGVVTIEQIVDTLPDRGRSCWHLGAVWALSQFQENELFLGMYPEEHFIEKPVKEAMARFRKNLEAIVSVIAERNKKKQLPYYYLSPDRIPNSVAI
Protocol: To 1 ml of heparin-treated vein blood of a healthy person without an administration of drugs was added 1 µl of a DMSO solution of the drug test sample listed in Table 5 (final 10⁻⁵ M), and after treatment at 37°C for 5 minutes, 5 µl of a DMSO solution of A23187 was added (final 25 µM) and the treatment carried out at 37°C for 15 minutes, followed by ice-cooling. After the addition of 10 µl of a DMSO solution of 100 ng of 15-HETE as the internal standard substance for quantitation, 0.8 ml of acetonitrile was added, and the precipitates formed were removed by centrifugation. Then, LTB₄ and 5-HETE in the supernatant were subjected to HPLC separation and quantitation (ref. F.J. Sweeney, et al., Prostaglandins Leukotrienes & Med., 28, 73 (1987)).

[5] = Experiment 1, 10⁻⁵ M, Compound 48/80 0.5 µg/ml
[6] = Experiment 2, 10⁻⁵ M, Compound 48/80 0.5 µg/ml

O=C(O)CSc1ccc2cc(O)c(O)cc2c1 [Exemplary compound IV-(2), (6,7-Dihydroxy-2-naphthylthio)acetic acid]
suppressive action against allergy histamine release (in words) [1]: suppressive actions
suppressive action against non-allergy histamine release (in words) [2]: weak suppressive actions

O=C(CSc1ccc2cc(O)c(O)cc2c1)Nc1nnn[nH]1 [Exemplary compound V-(2), N-5-tetrazolyl(6,7-dihydroxy-2-naphthylthio)-acetamide]
Suppressive ratio (IgE antibody production) ([3]; 10⁻⁷ M): 11%
inhibition at 10 µM [2, 5]: 2.2%
Suppressive ratio (%) Experiment 1 ([4]; 25 mg/kg): -0.3%

O=C(CSc1ccc2cc(O)c(O)cc2c1)Nc1ccccc1C(=O)O [Exemplary compound V-(3), N-(2-carboxyphenyl)(6,7-dihydroxy-2-naphthylthio)acetamide]
inhibition at 10 µM [2, 5]: 1.3%
Suppressive ratio (%) Experiment 1 ([4]; 25 mg/kg): -18.0%

COC(=O)c1ccccc1NC(=O)CSc1ccc2cc(O)c(O)cc2c1 [Exemplary compound V-(4), N-(2-methoxycarbonylphenyl)(6,7-dihydroxy-2-naphthylthio)acetamide]
Suppressive ratio (IgE antibody production) ([3]; 10⁻⁶ M): 7%
Suppressive ratio (IgE antibody production) ([3]; 10⁻⁷ M): 26%
inhibition at 10 µM [2, 5]: -0.8%
Suppressive ratio (%) Experiment 1 ([4]; 25 mg/kg): 0%

O=C(CSc1ccc2cc(O)c(O)cc2c1)Nc1ccccc1-c1nnn[nH]1 [Exemplary compound V-(5), N-[2-(5-tetrazolyl)phenyl](6,7-dihydroxy-2-naphthylthio)acetamide]
inhibition at 10 µM [2, 5]: 28.1%
Suppressive ratio (%) Experiment 2 ([4]; 25 mg/kg): 16.5%

O=C(CSc1ccc2cc(O)c(O)cc2c1)NCCCCN1CCN(C(c2ccc(F)cc2)c2ccc(F)cc2)CC1 [Exemplary compound V-(6), 1-[4-[(6,7-dihydroxy-2-naphthylthio)acetylamino]-butyl]-4-[bis(4-fluorophenyl)methyl]piperazine]
inhibition at 10 µM [2, 5]: 5.9%
Suppressive ratio (%) Experiment 2 ([4]; 25 mg/kg): 15.9%

COC(=O)CSc1ccc2cc(OC)c(OC)cc2c1 [Exemplary compound VI-(1), Methyl (6,7-dimethoxy-2-naphthylthio)acetate]
Suppressive ratio (IgE antibody production) ([3]; 10⁻⁶ M): 69%
inhibition at 10 µM [2, 6]: 3.7%

COC(=O)CSc1ccc2cc(OC(C)=O)c(OC(C)=O)cc2c1 [Exemplary compound VI-(2), Methyl (6,7-diacetoxy-2-naphthyithio)acetate]
Inhibitory ratio (%) histamine release [2, 6]: 2.6%

COC(=O)CSc1ccc2cc(OC(=O)OC)c(OC(=O)OC)cc2c1 [Exemplary compound VI-(3), Methyl (6,7-dimethoxycarbonyloxy-2-naphthylthio)acetate]
inhibition at 10 µM [2, 6]: 7.5%

COC(=O)CSc1ccc2cc(OC(=O)OC(C)C)c(OC(=O)OC(C)C)cc2c1 [Exemplary compound VI-(4), Methyl (6,7-diisopropoxycarbonyloxy-2-naphthylthio)acetate]
inhibition at 10 µM [2, 6]: 17.8%

COC(=O)C(C)Sc1ccc2cc(O)c(O)cc2c1 (stereo not shown) [Exemplary compound VII-(1), Methyl 2-(6,7-dihydroxy-2-naphthylthio)-propionate]
5-HETE (Inhibitory ratio %) (Lipoxygenase): 69%
LTB₄ (Inhibitory ratio %) (Lipoxygenase): 72%
Amount of LTB₄ produced (Lipoxygenase): 35 ng/ml/plasma
Amount of 5-HETE produced (Lipoxygenase): 40 ng/ml/plasma

Oc1cc2ccc(SCc3ccccc3)cc2cc1O [II-(1)]
5-HETE (Inhibitory ratio %) (Lipoxygenase): 66%
LTB₄ (Inhibitory ratio %) (Lipoxygenase): 76%
Amount of LTB₄ produced (Lipoxygenase): 30 ng/ml/plasma
Amount of 5-HETE produced (Lipoxygenase): 45 ng/ml/plasma

COc1ccc(/C=C/C(=O)Nc2ccccc2C(=O)O)cc1OC [Tranilast, reference compound]
inhibition at 10 µM [2, 5]: 24.4%
Suppressive ratio (%) Experiment 1 ([4]; 200 mg/kg): 24.2%
Suppressive ratio (%) Experiment 2 ([4]; 200 mg/kg): 26.9%
